The source of these data is ChEMBL document CHEMBL1136668, “Structure-activity relationships of some opiate glycosides” (Bioorg Med Chem Lett, 2003).

Each structure is given as a SMILES string.

The target in assay [1] is T1, Mu-type opioid receptor (Rattus norvegicus, UniProt P33535). Briefly: mu-2 receptor binding affinity in rat brain by 3H [d-Ala2, (N-Me)Phe4, Gly5-ol] enkephalin displacement. The format is tissue-based.
Assay [2] has as its system Mus musculus. Briefly: Area under the antinociceptive effect time curve after 4 mg/kg administration in mice. The class given is functional.
Assay [3] concerns the target T1, Mu-type opioid receptor. Briefly: mu-1 receptor binding affinity in rat brain by 3H [d-Ala2, d-Leu5] enkephalin displacement. The class given is tissue-based.
Assay [4] has as its system Mus musculus. The assay can be described thus: Area under the antinociceptive effect time curve was determined after administration of 8 mg/kg in mice. The class given is functional.
The test system of assay [5] is Mus musculus. The assay can be described thus: Area under the antinociceptive effect time curve after 2 mg/kg administration in mice. The format is functional.

T1 sequence (P33535 whole entry): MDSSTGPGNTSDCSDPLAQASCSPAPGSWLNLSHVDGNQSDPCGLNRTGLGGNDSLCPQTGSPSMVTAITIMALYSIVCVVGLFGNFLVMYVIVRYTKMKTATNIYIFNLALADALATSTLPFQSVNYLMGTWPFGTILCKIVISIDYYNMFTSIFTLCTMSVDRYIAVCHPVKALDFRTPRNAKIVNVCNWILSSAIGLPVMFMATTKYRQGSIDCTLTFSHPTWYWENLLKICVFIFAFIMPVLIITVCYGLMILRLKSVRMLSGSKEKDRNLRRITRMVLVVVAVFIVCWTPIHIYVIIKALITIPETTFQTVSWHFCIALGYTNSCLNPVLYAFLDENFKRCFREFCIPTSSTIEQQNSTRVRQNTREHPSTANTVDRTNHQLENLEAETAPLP

The Ki is a measure of affinity in units of concentration, obtained from inhibition or displacement. Read a high Ki as weaker binding. Regarding `CN1CCC23c4c5ccc(O)c4O[C@H]2[C@@H](OC2OC(C(=O)O)=CC(O)C2O)C=C[C@H]3[C@H]1C5` (some centres undefined), the Ki on Mu-type opioid receptor [1] was found to be 48 nM; at Mu-type opioid receptor [3], 1.4 nM. The AUEC in the assay on Mus musculus [2] was 759 A% min-1; with Mus musculus [4] it was 701 A% min-1; in the assay on Mus musculus [5], 651 %·min.
As to `CC1OC(O[C@H]2C=C[C@H]3[C@H]4Cc5ccc(O)c6c5C3(CCN4C)[C@H]2O6)C(O)C(O)C1O` (some centres undefined), the Ki was determined as 6.2 nM at Mu-type opioid receptor [1] and 0.17 nM on Mu-type opioid receptor [3]. Further, the AUEC with Mus musculus [2] was found to be 250 A% min-1; with Mus musculus [5] it was 421 %·min.
As for `CN1CC[C@]23c4c5ccc(O)c4O[C@H]2[C@@H](OC2O[C@@H](C(=O)O)CC(O)C2O)C=C[C@H]3[C@H]1C5` (some centres undefined), the Ki came out at 57 nM at Mu-type opioid receptor [1] and 1.9 nM at Mu-type opioid receptor [3]. Moreover, the AUEC with Mus musculus [2] came to 365 A% min-1; with Mus musculus [5] it was 18 %·min. Moreover, the Activity in the assay on Mus musculus [4] is given as 1046 A% min-1.
Take `CN1CC[C@]23c4c5ccc(O)c4O[C@H]2[C@@H](OC2OC(CO)[C@H](O)C(O)C2O)C=C[C@H]3[C@H]1C5` (some centres undefined): the Ki on Mu-type opioid receptor [1] is 3.2 nM; on Mu-type opioid receptor [3], 0.28 nM. Moreover, the AUEC amounted to 2283 A% min-1 with Mus musculus [2] and 1130 %·min with Mus musculus [5].
For `CN1CCC23c4c5ccc(O)c4O[C@H]2[C@@H](OC2OC(CO)[C@H](O)C(O)C2O)C=C[C@H]3[C@H]1C5` (some centres undefined), the Ki on Mu-type opioid receptor [1] stood at 4.8 nM; on Mu-type opioid receptor [3], 1.2 nM. Also, the AUEC in the assay on Mus musculus [2] worked out at 686 A% min-1; with Mus musculus [4] it was 2397 A% min-1; in the assay with Mus musculus [5] it was 682 %·min.
In the same order, the values of `CN1CC[C@]23c4c5ccc(O)c4O[C@H]2[C@@H](O[C@@H]2O[C@H](C(=O)O)C[C@H](O)[C@@H]2O)C=C[C@H]3[C@H]1C5` are 172 nM, 0.6 nM, 80 A% min-1, 380 A% min-1 and 35 %·min.
In the case of `CN1CCC23c4c5ccc(O)c4O[C@H]2[C@@H](O[C@@H]2O[C@@H](CO)[C@@H](O)[C@H](O)[C@@H]2O)CC[C@H]3[C@H]1C5`, the Ki on Mu-type opioid receptor [1] was 2.5 nM; on Mu-type opioid receptor [3], 0.21 nM. For the same compound, the values for the AUEC with Mus musculus [2] and in the assay on Mus musculus [5] were 2701 A% min-1 and 1490 %·min, respectively.
In the same order, the values of `CN1CCC23c4c5ccc(O)c4O[C@H]2[C@@H](O[C@@H]2O[C@@H](C(=O)O)[C@@H](O)[C@H](O)[C@@H]2O)CC[C@H]3[C@H]1C5` are 5.7 nM, 0.25 nM, 1885 A% min-1 and 1667 %·min.
With `O=C(O)[C@@H]1O[C@@H](O[C@H]2C=C[C@H]3[C@H]4Cc5ccc(O)c6c5C3(CCN4CC3CC3)[C@H]2O6)[C@@H](O)[C@@H](O)[C@@H]1O`, the Ki on Mu-type opioid receptor [1] was 3.5 nM; at Mu-type opioid receptor [3] it was 0.06 nM. The AUEC in the assay with Mus musculus [2] is recorded as 599 A% min-1; in the assay with Mus musculus [4], 266 A% min-1; in the assay with Mus musculus [5], 126 %·min.
For the compound `CN1CCC23c4c5ccc(O)c4O[C@H]2[C@@H](O[C@@H]2O[C@H](C(=O)O)[C@@H](O)[C@H]2O)C=C[C@H]3[C@H]1C5`, the figures for the Ki at Mu-type opioid receptor [1] and on Mu-type opioid receptor [3] were 44 nM and 1.6 nM, respectively. In addition, the AUEC was 797 A% min-1 with Mus musculus [2], 596 A% min-1 in the assay with Mus musculus [4] and -56 %·min with Mus musculus [5].
In the case of `CN1CCC23c4c5ccc(O)c4O[C@H]2[C@@H](OC2C=CC(O)C(C(=O)O)O2)C=C[C@H]3[C@H]1C5` (some centres undefined), the Ki at Mu-type opioid receptor [1] stood at 178 nM; at Mu-type opioid receptor [3], 3.2 nM. In addition, the AUEC in the assay on Mus musculus [2] is reported as 130 A% min-1; in the assay on Mus musculus [5] it was 491 %·min. Besides, the Activity in the assay on Mus musculus [4] worked out at 851 A% min-1.
For the compound `O=C(O)[C@@H]1O[C@@H](O[C@H]2CC[C@H]3[C@H]4Cc5ccc(O)c6c5[C@@]3(CCN4)[C@H]2O6)[C@@H](O)[C@@H](O)[C@@H]1O`, the AUEC with Mus musculus [2] is listed as 2461 A% min-1; in the assay on Mus musculus [5], 2196 %·min.
Turning to `COc1ccc2c3c1O[C@H]1[C@@H](O[C@@H]4O[C@@H](C(=O)O)[C@@H](O)[C@H](O)[C@@H]4O)C=C[C@H]4[C@@H](C2)N(C)CC[C@@]341`, the inhibition constant (Ki) at Mu-type opioid receptor [1] stood at 5700 nM; on Mu-type opioid receptor [3], 85 nM.
For the compound `O=C(O)[C@@H]1O[C@@H](O[C@H]2C=C[C@H]3[C@H]4Cc5ccc(O)c6c5[C@@]3(CCN4)[C@H]2O6)[C@@H](O)[C@@H](O)[C@@H]1O`, the Ki on Mu-type opioid receptor [1] came out at 37 nM; on Mu-type opioid receptor [3] it was 0.98 nM. The values for the AUEC in the assay with Mus musculus [2], with Mus musculus [4] and with Mus musculus [5] were 1614 A% min-1, 2487 A% min-1 and 393 %·min, respectively.
The like results for `C=CCN1CC[C@]23c4c5ccc(O)c4O[C@H]2[C@@H](O[C@@H]2O[C@@H](C(=O)O)[C@@H](O)[C@H](O)[C@@H]2O)C=C[C@H]3[C@H]1C5` were, in that order, 10 nM, 0.2 nM, 147 A% min-1, 492 A% min-1 and 221 %·min.
In the case of `O=C(O)CN1CC[C@]23c4c5ccc(O)c4O[C@H]2[C@@H](O[C@@H]2O[C@@H](C(=O)O)[C@@H](O)[C@H](O)[C@@H]2O)C=C[C@H]3[C@H]1C5`, the Ki is 1620 nM on Mu-type opioid receptor [1] and 33 nM on Mu-type opioid receptor [3]. For the same compound, the results for the AUEC in the assay with Mus musculus [2], in the assay with Mus musculus [4] and with Mus musculus [5] were 45 A% min-1, 322 A% min-1 and 266 %·min, respectively.
Take `CN1CCC23c4c5ccc(O)c4O[C@H]2[C@@H](OC2CCCC(C(=O)O)O2)C=C[C@H]3[C@H]1C5` (some centres undefined): the Ki was determined as 168 nM at Mu-type opioid receptor [1] and 0.51 nM on Mu-type opioid receptor [3]. The AUEC stood at 26 A% min-1 in the assay with Mus musculus [2], 478 A% min-1 in the assay with Mus musculus [4] and 230 %·min with Mus musculus [5].
On to `CN1CC[C@]23c4c5ccc(O)c4O[C@H]2[C@@H](O[C@@H]2O[C@H](C(=O)O)[C@@H](O)[C@H](O)[C@H]2O)C=C[C@H]3[C@H]1C5` [MORPHINE GLUCURONIDE], for which the Ki stood at 26 nM on Mu-type opioid receptor [1] and 1.5 nM at Mu-type opioid receptor [3]. In addition, the AUEC in the assay with Mus musculus [2] came to 1359 A% min-1.
Regarding `CN1CC[C@]23c4c5ccc(O)c4O[C@H]2[C@@H](O)C=C[C@H]3[C@H]1C5` [MORPHINE], in the assay with Mus musculus [2], the AUEC is on record as 1987 A% min-1.
